Source: patent US20260226037A1, “MICROTUBULE TARGETING AGENTS” (ARIEL SCIENTIFIC INNOVATIONS LTD., priority 2022, published 2026)
Where two headings read alike, the source gives them in different places.

Experiments:
RPMI 8226 cells = experiment: XTT cytotoxicity, RPMI 8226; format: cell-based; conditions: Homo sapiens
Procedure: (§1) The cytotoxic activity of the novel family was evaluated against various tumor cells, including myeloma cells, acute lymphoblastic leukemia cells, acute monocytic leukemia cells, chronic myelogenous leukemia cells, pancreatic cancer cells, breast cancer cells, uterine sarcoma cells, cervix adenocarcinoma cells, ovary cancer cells, melanoma cells, osteosarcoma cells, prostate cancer cells, lung cancer cells, neuroblastoma cells and colorectal adenocarcinoma cells by XTT assay.

RPMI-DOX40 cells = experiment: XTT cytotoxicity, RPMI-DOX40; format: cell-based; conditions: for IC50 ratio between resistant and non-resistant cells: RPMI-DOX40 / RPMI 8226
Procedure: as §1

RPMI-LR5 cells = experiment: XTT cytotoxicity, RPMI-LR5; format: cell-based; conditions: for IC50 ratio between resistant and non-resistant cells: RPMI-LR5 / RPMI 8226
Procedure: as §1

RPMI-MR20 cells = experiment: XTT cytotoxicity, RPMI-MR20; format: cell-based; conditions: for IC50 ratio between resistant and non-resistant cells: RPMI-MR20 / RPMI 8226
Procedure: as §1

MM1.S cells = experiment: XTT cytotoxicity, MM1.S; format: cell-based; conditions: Homo sapiens
Procedure: as §1

MM1.R cells = experiment: XTT cytotoxicity, MM1.R; format: cell-based; conditions: for IC50 ratio between resistant and non-resistant cells: MM1.R / MM1.S; for IC50: MM.1R
Procedure: as §1

NALM6 cells = experiment: XTT cytotoxicity, NALM6; format: cell-based; conditions: Homo sapiens, NALM-6
Procedure: as §1
(§2) Most tubulin-binding anticancer drugs currently used in the clinic are substrates for Pgp effux pump. […] The inventors tested the viability of NALM6 acute lymphoblastic leukemia cell line (ALL) and its corresponding doxorubicin resistant N6/ADR cell line that overexpress Pgp glycoprotein and has cross-resistance to vincristine.

N6/ADR cells = experiment: XTT cytotoxicity, N6/ADR; format: cell-based; conditions: for IC50 ratio between resistant and non-resistant cells: N6/ADR / NALM6
Procedure: as §1, §2

MCF7 cells = experiment: XTT cytotoxicity, MCF7; format: cell-based; conditions: Homo sapiens; MCF7, breast adenocarcinoma, non-resistant
Procedure: as §1

MCF7-VP cells = experiment: XTT cytotoxicity, MCF7-VP; format: cell-based; conditions: for IC50: Homo sapiens, MCF7-VP, breast adenocarcinoma, MRP overexpression; for IC50 ratio between resistant and non-resistant cells: MCF7-VP / MCF7
Procedure: as §1

MES-SA cells = experiment: XTT cytotoxicity, MES-SA; format: cell-based; conditions: Homo sapiens, poorly differentiated uterine sarcoma, non-resistant
Procedure: as §1

MES-SA/DX5 cells = experiment: XTT cytotoxicity, MES-SA/DX5; format: cell-based; conditions: for IC50: Homo sapiens, MES-SA/DX5, uterine sarcoma, P-gp overexpression; for IC50 ratio between resistant and non-resistant cells: MES-SA/DX5 / MES-SA
Procedure: as §1

purified tubulin = experiment: Tubulin polymerization, cell-free assay; format: biochemical; conditions: tubulin 2.00 mg/mL; 1, 15 and 30 μM; 37° C., 100 min; vs vehicle
Procedure: The effect of the compounds on their ability to inhibit tubulin polymerization, was tested against a vehicle control by evaluating polymerization of purified tubulin in a cell-free assay where tubulin (2.00 mg/mL) was exposed to vehicle control or 1, 15 and 30 μM of the compounds (n=2). Polymerizations were tracked by an increase in fluorescence excitation wavelength is 340-360 nm and emission wavelength at 410-460 nm. Fluorescence was monitored at 37° C. every 30 sec for 100 min.

[1] = system: colchicine binding site on tubulin protein; experiment: EBI competition assay, RPMI-8226 cells; format: cell-based; conditions: for prevention of covalent binding of EBI to the colchicine binding site: RPMI-8226 living cells
RPMI8226 cells = experiment: Cell cycle distribution by flow cytometry; format: cell-based; conditions: 6 hours; IC50, IC50x2.5 and IC50x5 concentrations
Procedure: Cell cycle arrest is a shared consequence of MTAs treatment. The effects of cell cycle distribution were determined in RPMI8226 cells treated for 6 and 18 hours with a range of concentrations of the molecules. The cells were stained with propidium iodide and cell cycle distribution was measured using a cytoFLEX flow cytometer.

RPMI8226 myeloma cells = experiment: Xenograft murine myeloma model, antitumor efficacy; format: in vivo, mice
Procedure: In vivo anti-cancer efficacy of the molecules was evaluated in a xenograft murine myeloma model. Male SCID mice (6-8 weeks old) were maintained in accordance with Institutional Animal Care Use Committee guidelines. Mice were housed in the Animal Research Facility of Ariel University and experiments were performed in accordance with approved protocols. […] Mice were sacrificed when mean tumor volume of vehicle treated group reached 1500 mm3, or mice appeared moribund to prevent unnecessary morbidity. Mean tumor volume represents the average of tumor volume in each treatment group during the experiment. The weight of the tumors was measured at the end of the experiment and expressed as mean tumor weight per group. Body weight is expressed as mean body mice weight per group. The individual relative tumor volume (RTV) was defined as Vx/V1, where Vx is the mean tumor volume in mm3 at a given time and V1 at the start of treatment. Relative tumor volume is determined by calculating RTV (%) (mean RTV of treated group)/(mean RTV of control group)). Relative tumor volume inhibition is determined by calculating RTVI (%) (1-RTV %)

[2] = Xenograft murine myeloma model, body weight and toxicity signs; format: in vivo; conditions: during the experiment
Procedure: In vivo anti-cancer efficacy of the molecules was evaluated in a xenograft murine myeloma model. Male SCID mice (6-8 weeks old) were maintained in accordance with Institutional Animal Care Use Committee guidelines. Mice were housed in the Animal Research Facility of Ariel University and experiments were performed in accordance with approved protocols. During the experiment, RPMI8226 myeloma cells in exponential growth were harvested from culture, washed three times with sterile PBS, counted and resuspended in sterile PBS (1.5×10^7cells mouse/0.1 ml PBS) and subcutaneously injected on the right flank of male C.B-17/IcrHsd-Prkdc-scid, […] mice. After two weeks of cells injection, when tumors reached a size between 30-60 mm3, mice were assigned into different groups (n=3-5) and started receiving treatment. Body weights were determined twice weekly along with tumor volume {V=[length×(width)2]/2}measurements using electronical caliper. Mice were sacrificed when mean tumor volume of vehicle treated group reached 1500 mm3, or mice appeared moribund to prevent unnecessary morbidity.
The weight of the tumors was measured at the end of the experiment and expressed as mean tumor weight per group. Body weight is expressed as mean body mice weight per group.

[3] = RPMI 8226, multiple myeloma, non-resistant, read-out: IC50
[4] = RPMI-DOX40, multiple myeloma, P-gp overexpression, read-out: IC50
[5] = RPMI-LR5, multiple myeloma, melphalan resistant, read-out: IC50
[6] = RPMI-MR20, mitoxantrone resistant, read-out: IC50
[7] = multiple myeloma, non-resistant, read-out: IC50
[8] = MM1.R, multiple myeloma, dexamethasone resistant, read-out: IC50
[9] = NALM6, acute lymphoblastic leukemia, non-resistant, read-out: IC50
[10] = N6/ADR, acute lymphoblastic leukemia, P-gp overexpression, read-out: IC50

| Compound | IC50 (RPMI 8226 cells; [3]) [nM] | IC50 (RPMI-DOX40 cells; [4]) [nM] | IC50 ratio between resistant and non-resistant cells (RPMI-DOX40 cells) | IC50 (RPMI-LR5 cells; [5]) [nM] | IC50 ratio between resistant and non-resistant cells (RPMI-LR5 cells) | IC50 (RPMI-MR20 cells; [6]) [nM] | IC50 ratio between resistant and non-resistant cells (RPMI-MR20 cells) | IC50 (MM1.S cells; [7]) [nM] | IC50 ratio between resistant and non-resistant cells (MM1.R cells) | IC50 (MM1.R cells; [8]) [nM] | IC50 (NALM6 cells; [9]) [nM] | IC50 ratio between resistant and non-resistant cells (N6/ADR cells) | IC50 (MCF7 cells) [nM] | IC50 (MCF7-VP cells) [nM] | IC50 ratio between resistant and non-resistant cells (MCF7-VP cells) | IC50 (MES-SA cells) [nM] | IC50 (MES-SA/DX5 cells) [nM] | IC50 ratio between resistant and non-resistant cells (MES-SA/DX5 cells) | prevention of covalent binding of EBI to the colchicine binding site [1] | cell cycle arrest (RPMI8226 cells) | also measured |
| --- | --- | --- | --- | --- | --- | --- | --- | --- | --- | --- | --- | --- | --- | --- | --- | --- | --- | --- | --- | --- | --- |
| Cc1c(C(=O)OCCCCO)[nH]c2c1C(=O)CC(c1ncco1)C2 (stereo not shown) [SMS096, 4-hydroxybutyl 3-methyl-6-(oxazol-2-yl)-4-oxo-4,5,6,7-tetrahydro-1H-indole-2-carboxylate] | 1090 | 1180 | 1.081 | 1130 | 1.031 | > 1800 | >1.647 | 748 | 1.447 | 1080 | 624 | 0.087 | 7840 | 5740 | 0.732 | 1240 | 1430 | 1.153 | prevented the covalent binding of EBI to the colchicine binding site | cell cycle arrest in G2M phase | IC50 (N6/ADR cells; [10]): 54 nM; rate of tubulin polymerization (purified tubulin): inhibited the rate of tubulin polymerization in a concentration-dependent manner; relative affinity for the colchicine binding site ([1]; RPMI-8226 cells, EBI competition): higher affinity than SMS001, SMS182, SMS088 and SMS229 |
| Cc1c(C(=O)OC2CCCC2)[nH]c2c1C(=O)CC(c1ncco1)C2 (stereo not shown) [SMS101, cyclopentyl 3-methyl-6-(oxazol-2-yl)-4-oxo-4,5,6,7-tetrahydro-1H-indole-2-carboxylate] | 90 | 77 | 0.856 | 73 | 0.811 | 99 | 1.100 | 129 | 3.953 | 510 | 48 | 0.875 | 11900 | 351 | 0.029 | 186 | 213 | 1.145 | prevented the covalent binding of EBI to the colchicine binding site | cell cycle arrest in G2M phase | IC50 (N6/ADR cells; [10]): 42 nM; rate of tubulin polymerization (purified tubulin): inhibited the rate of tubulin polymerization in a concentration-dependent manner |
| CCCCCOC(=O)c1[nH]c2c(c1C)C(O)CC(c1ncco1)C2 (stereo not shown) [SMS108, pentyl-4-hydroxy-3-methyl-6-(oxazol-2-yl)-4,5,6,7-tetrahydro-1H-indole-2-carboxylate] | 516 | 498 | 0.965 | 427 | 0.828 | 388 | 0.752 | 735 | 1.633 | 1200 | 345 | 0.957 | 7120 | 5900 | 0.828 | 700 | 490 | 0.700 | did not prevent the covalent binding of EBI to the colchicine binding site | cell cycle arrest in G2M phase | IC50 (N6/ADR cells; [10]): 330 nM; rate of tubulin polymerization (purified tubulin): inhibited the rate of tubulin polymerization in a concentration-dependent manner |
| Cc1c(C(=O)OCCCCN)oc2c1C(=O)CC(c1ncco1)C2.Cl (stereo not shown) [SMS228, 4-((3-methyl-6-(oxazol-2-yl)-4-oxo-4,5,6,7-tetrahydrobenzofuran-2-carbonyl)oxy)butan-1-aminium chloride] | – | – | 0.853 | – | 0.847 | – | >1.454 | – | >0.406 | – | – | 1.029 | 8810 | 12300 | 1.400 | 9520 | 7410 | 0.778 | did not prevent the covalent binding of EBI to the colchicine binding site | cell cycle arrest in G2M phase | IC50 (RPMI 8226 cells; RPMI-8226): 1530 nM; IC50 (RPMI-DOX40 cells): 1310 nM; IC50 (RPMI-LR5 cells): 1300 nM; IC50 (RPMI-MR20 cells): 2230 nM; IC50 (MM1.S cells): 4430 nM; IC50 (MM1.R cells): > 1800 nM; IC50 (NALM6 cells): 350 nM; IC50 (N6/ADR cells): 360 nM; Relative tumor volume inhibition (RPMI8226 myeloma cells; 15 mg/kg intraperitoneally, after 21 days): 20%; Relative tumor volume inhibition (RPMI8226 myeloma cells; 30 mg/kg intraperitoneally, after 21 days): 23%; growth inhibition rate (tumor weight at end of experiment) (RPMI8226 myeloma cells; 30 mg/kg subcutaneously): 70%; Relative tumor volume inhibition (RPMI8226 myeloma cells; 30 mg/kg subcutaneously, after 19 days): 45%; tumor volume lower in the treated group vs vehicle (RPMI8226 myeloma cells; 30 mg/kg subcutaneously, beginning of the experiment): 56%; tumor volume lower in the treated group vs vehicle (RPMI8226 myeloma cells; 30 mg/kg subcutaneously, day 21): 76%; Relative tumor volume inhibition (RPMI8226 myeloma cells; 50 mg/kg intraperitoneally, after 21 days): 42%; decrease of tumor volume as compared to vehicle at the same day (RPMI8226 myeloma cells; 50 mg/kg intraperitoneally, day 7 to 19): 30%; decrease of tumor volume as compared to vehicle at the same day (RPMI8226 myeloma cells; 50 mg/kg intraperitoneally, day 21): 40%; growth inhibition rate (tumor weight at end of experiment) (RPMI8226 myeloma cells; intraperitoneally): 44%; body weight and other signs of potential toxicity ([2]; 30 mg/kg subcutaneously): No significant changes in body weight or other signs of potential toxicity; body weight and other signs of potential toxicity ([2]; intraperitoneally): No significant changes in body weight or other signs of potential toxicity |
